Experimental data: patent publication US20230139171A1 (SITA Information Networking Computing UK Limited, priority 2019, published 2023)

Assays:
Type in all cases: cell-based
[1] = molecular target: T1, human TLR7 (Homo sapiens, UniProt Q9NYK1); assay: TLR7 inhibition reporter assay (HEK-Blue cells, SEAP reporter, gardiquimod stimulation); conditions: HEK-Blue cells overexpressing human TLR7, SEAP reporter, gardiquimod 7.5 μM; read-out: TLR7 IC50
T1 construct: host or cells: HEK-Blue cells
T1 sequence (Q9NYK1 27-1049): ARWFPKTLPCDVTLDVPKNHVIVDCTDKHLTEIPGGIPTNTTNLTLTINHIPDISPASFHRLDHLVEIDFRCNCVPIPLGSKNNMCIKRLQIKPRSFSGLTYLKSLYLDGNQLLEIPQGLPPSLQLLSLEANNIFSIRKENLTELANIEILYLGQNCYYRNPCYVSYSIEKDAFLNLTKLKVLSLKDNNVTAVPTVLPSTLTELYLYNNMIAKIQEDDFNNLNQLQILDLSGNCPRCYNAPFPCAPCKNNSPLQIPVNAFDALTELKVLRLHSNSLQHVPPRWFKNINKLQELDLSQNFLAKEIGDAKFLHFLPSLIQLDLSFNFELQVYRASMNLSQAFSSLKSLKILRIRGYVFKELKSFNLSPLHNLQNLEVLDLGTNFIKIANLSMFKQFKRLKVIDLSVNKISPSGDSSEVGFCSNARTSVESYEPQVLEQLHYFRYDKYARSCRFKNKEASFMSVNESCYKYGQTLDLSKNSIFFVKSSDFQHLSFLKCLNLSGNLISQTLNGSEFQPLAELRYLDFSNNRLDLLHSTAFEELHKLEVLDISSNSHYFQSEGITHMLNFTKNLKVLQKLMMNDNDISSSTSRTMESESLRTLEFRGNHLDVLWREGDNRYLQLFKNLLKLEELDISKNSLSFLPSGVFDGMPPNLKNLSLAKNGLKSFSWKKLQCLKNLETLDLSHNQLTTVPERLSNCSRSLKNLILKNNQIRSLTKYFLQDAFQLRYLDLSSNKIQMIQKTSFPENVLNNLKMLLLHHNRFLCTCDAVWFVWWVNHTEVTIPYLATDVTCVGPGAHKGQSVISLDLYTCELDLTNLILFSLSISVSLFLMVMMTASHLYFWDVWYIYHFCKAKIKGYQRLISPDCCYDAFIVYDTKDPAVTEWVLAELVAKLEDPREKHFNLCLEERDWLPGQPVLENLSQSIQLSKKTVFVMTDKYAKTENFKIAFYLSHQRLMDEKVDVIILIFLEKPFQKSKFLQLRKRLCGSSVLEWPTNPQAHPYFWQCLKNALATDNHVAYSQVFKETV
In short: (§1)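 Human TLR7/8/9 HEK-Blue reporter lines; dose range 0.05 nM–50 μM; 30 min RT preincubation; stimulus gardiquimod 7.5 μM / R848 15.9 μM / ODN2006 5 nM respectively; 22 h, 37 °C; SEAP detected colorimetrically.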

[2] = molecular target: T2, human TLR9 (Homo sapiens, UniProt Q9NR96); assay: TLR9 inhibition reporter assay (HEK-Blue cells, SEAP reporter, ODN2006 stimulation); conditions: HEK-Blue cells overexpressing human TLR9, SEAP reporter, ODN2006 5 nM
T2 construct: host or cells: HEK-Blue cells
T2 sequence (Q9NR96 26-1032): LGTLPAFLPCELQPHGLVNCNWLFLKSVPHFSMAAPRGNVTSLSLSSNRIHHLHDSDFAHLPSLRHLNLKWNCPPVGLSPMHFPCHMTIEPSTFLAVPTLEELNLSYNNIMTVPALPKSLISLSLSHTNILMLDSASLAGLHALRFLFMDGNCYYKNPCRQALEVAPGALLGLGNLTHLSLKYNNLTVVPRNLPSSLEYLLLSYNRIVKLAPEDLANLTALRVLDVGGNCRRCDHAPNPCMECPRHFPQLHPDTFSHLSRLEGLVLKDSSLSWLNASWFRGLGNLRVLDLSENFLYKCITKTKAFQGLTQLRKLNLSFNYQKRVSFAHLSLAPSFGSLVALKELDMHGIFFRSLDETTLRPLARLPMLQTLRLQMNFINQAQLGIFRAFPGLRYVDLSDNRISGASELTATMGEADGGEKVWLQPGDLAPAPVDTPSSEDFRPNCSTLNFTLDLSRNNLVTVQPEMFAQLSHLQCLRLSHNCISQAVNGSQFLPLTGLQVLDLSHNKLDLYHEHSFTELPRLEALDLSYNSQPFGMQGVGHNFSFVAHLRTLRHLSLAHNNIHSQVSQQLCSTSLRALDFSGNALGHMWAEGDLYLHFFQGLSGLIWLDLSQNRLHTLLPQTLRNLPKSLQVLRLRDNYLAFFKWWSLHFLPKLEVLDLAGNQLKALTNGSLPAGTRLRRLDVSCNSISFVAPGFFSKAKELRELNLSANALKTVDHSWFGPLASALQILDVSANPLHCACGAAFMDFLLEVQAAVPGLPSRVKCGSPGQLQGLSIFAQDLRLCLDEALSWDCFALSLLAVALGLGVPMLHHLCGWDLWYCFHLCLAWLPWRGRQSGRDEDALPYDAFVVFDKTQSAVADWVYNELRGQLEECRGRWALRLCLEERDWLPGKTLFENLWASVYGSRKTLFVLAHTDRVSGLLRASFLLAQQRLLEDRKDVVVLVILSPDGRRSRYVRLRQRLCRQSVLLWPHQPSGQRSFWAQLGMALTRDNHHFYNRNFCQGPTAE
In short: as §1

[3] = molecular target: T3, human TLR8 (Homo sapiens, UniProt Q9NR97); assay: TLR8 inhibition reporter assay (HEK-Blue cells, SEAP reporter, R848 stimulation); conditions: HEK-Blue cells overexpressing human TLR8, SEAP reporter, R848 15.9 μM; read-out: TLR8 IC50
T3 construct: host or cells: HEK-Blue cells
T3 sequence (Q9NR97 27-1041): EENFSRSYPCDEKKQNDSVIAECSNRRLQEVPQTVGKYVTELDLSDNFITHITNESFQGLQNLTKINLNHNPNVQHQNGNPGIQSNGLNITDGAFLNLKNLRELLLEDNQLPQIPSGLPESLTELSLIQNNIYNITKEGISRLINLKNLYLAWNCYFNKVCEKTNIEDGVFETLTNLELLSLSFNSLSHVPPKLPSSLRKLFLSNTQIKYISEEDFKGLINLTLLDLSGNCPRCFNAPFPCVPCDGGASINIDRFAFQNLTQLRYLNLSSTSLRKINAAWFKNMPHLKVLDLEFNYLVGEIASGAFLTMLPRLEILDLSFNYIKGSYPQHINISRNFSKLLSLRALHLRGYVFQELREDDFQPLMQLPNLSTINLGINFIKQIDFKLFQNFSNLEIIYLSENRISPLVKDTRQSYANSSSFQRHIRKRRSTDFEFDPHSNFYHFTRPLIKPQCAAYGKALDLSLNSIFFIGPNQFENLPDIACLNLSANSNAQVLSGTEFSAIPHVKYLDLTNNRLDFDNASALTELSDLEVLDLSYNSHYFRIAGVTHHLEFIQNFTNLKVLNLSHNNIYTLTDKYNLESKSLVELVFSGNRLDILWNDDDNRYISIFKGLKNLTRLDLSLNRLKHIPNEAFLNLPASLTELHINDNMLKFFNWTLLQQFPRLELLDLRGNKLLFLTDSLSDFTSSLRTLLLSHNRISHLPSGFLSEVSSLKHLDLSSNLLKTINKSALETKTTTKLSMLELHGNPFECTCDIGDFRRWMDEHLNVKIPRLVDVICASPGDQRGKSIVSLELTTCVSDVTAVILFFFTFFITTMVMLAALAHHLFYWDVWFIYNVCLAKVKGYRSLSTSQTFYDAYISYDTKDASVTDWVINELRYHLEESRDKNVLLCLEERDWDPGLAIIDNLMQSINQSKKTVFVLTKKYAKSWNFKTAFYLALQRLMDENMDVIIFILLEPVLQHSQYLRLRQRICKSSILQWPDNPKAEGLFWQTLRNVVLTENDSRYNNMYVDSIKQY
In short: as §1

For `COc1cc(-c2[nH]c3sc(C4CCC(N5CC(OC)C5)CC4)nc3c2C(C)C)cn2ncnc12` (single isomer, unassigned) [Example 122, 6-isopropyl-5-(8-methoxy-[1,2,4]triazolo[1,5-a]pyridin-6-yl)-2-(4-(3-methoxyazetidin-1-yl)cyclohexyl)-4H-pyrrolo[3,2-d]thiazole], which IC50 [1] is on record?
The IC50 was 1.95 nM.

And the IC50 [2]?
Its IC50 is 9250 nM.

What about the IC50 [3] of the same molecule?
The IC50 was 3.34 nM.

Which results are given for `COc1cc(-c2[nH]c3sc(C4CCC(N5CC(OC)C5)CC4)nc3c2C(C)C)cn2ncnc12` (single isomer, unassigned) [Example 123, 6-isopropyl-5-(8-methoxy-[1,2,4]triazolo[1,5-a]pyridin-6-yl)-2-(4-(3-methoxyazetidin-1-yl)cyclohexyl)-4H-pyrrolo[3,2-d]thiazole]?
IC50 [1]: 5.09 nM; IC50 [2]: 6290 nM; IC50 [3]: 16.8 nM

`COc1cc(-c2[nH]c3sc(C4CCC(N(C)C5COC5)CC4)nc3c2C(C)C)cn2ncnc12` (single isomer, unassigned) [Example 125, N-(4-(6-isopropyl-5-(8-methoxy-[1,2,4]triazolo[1,5-a]pyridin-6-yl)-4H-pyrrolo[3,2-d]thiazol-2-yl)cyclohexyl)-N-methyloxetan-3-amine] was tested. Which IC50 [1] did it give?
The IC50 was 5.8 nM.

And the IC50 [2]?
The IC50 was 5400 nM.

And the IC50 [3]?
The IC50 was 25.9 nM.

`Cc1cc(-c2[nH]c3sc(C4CCC(NC5COC5)CC4)nc3c2C(C)C)cn2ncnc12` (single isomer, unassigned) [Example 130, N-(4-(6-isopropyl-5-(8-methyl-[1,2,4]triazolo[1,5-a]pyridin-6-yl)-4H-pyrrolo[3,2-d]thiazol-2-yl)cyclohexyl)oxetan-3-amine] was tested. Which IC50 [1] did it give?
The IC50 was 0.45 nM.

What about the IC50 [2] of the same molecule?
The IC50 was 11500 nM.

What about the IC50 [3] of the same molecule?
The IC50 was 2.42 nM.

Which results are given for `Cc1cc(-c2[nH]c3sc(C4CCC(NC5COC5)CC4)nc3c2C(C)C)cn2ncnc12` (single isomer, unassigned) [Example 131, N-(4-(6-isopropyl-5-(8-methyl-[1,2,4]triazolo[1,5-a]pyridin-6-yl)-4H-pyrrolo[3,2-d]thiazol-2-yl)cyclohexyl)oxetan-3-amine]?
IC50 [1]: 7.48 nM; IC50 [2]: 10900 nM; IC50 [3]: 32.6 nM

Which IC50 [1] does the source give for `CCN(C)C1CCC(c2nc3c(C(C)C)c(-c4cc(C)c5ncnn5c4)[nH]c3s2)CC1` (single isomer, unassigned) [Example 132, N-ethyl-4-(6-isopropyl-5-(8-methyl-[1,2,4]triazolo[1,5-a]pyridin-6-yl)-4H-pyrrolo[3,2-d]thiazol-2-yl)-N-methylcyclohexan-1-amine] here?
The IC50 was 0.36 nM.

What about the IC50 [2] of the same molecule?
The IC50 was 2140 nM.

What about the IC50 [3] of the same molecule?
Its IC50 is 2.73 nM.

Which IC50 [1] does the source give for `Cc1cc(-c2[nH]c3sc(C4CCC(NCC5(C)COC5)CC4)nc3c2C(C)C)cn2ncnc12` (single isomer, unassigned) [Example 134, 4-(6-isopropyl-5-(8-methyl-[1,2,4]triazolo[1,5-a]pyridin-6-yl)-4H-pyrrolo[3,2-d]thiazol-2-yl)-N-((3-methyloxetan-3-yl)methyl)cyclohexan-1-amine] here?
Its IC50 is 1.23 nM.

What about the IC50 [2] of the same molecule?
The IC50 was 16100 nM.

And the IC50 [3]?
Its IC50 is 1.28 nM.

Which IC50 [1] does the source give for `Cc1cc(-c2[nH]c3sc(C4CCC(NCC5(C)COC5)CC4)nc3c2C(C)C)cn2ncnc12` (single isomer, unassigned) [Example 135, 4-(6-isopropyl-5-(8-methyl-[1,2,4]triazolo[1,5-a]pyridin-6-yl)-4H-pyrrolo[3,2-d]thiazol-2-yl)-N-((3-methyloxetan-3-yl)methyl)cyclohexan-1-amine] here?
The IC50 was 6.8 nM.

What about the IC50 [2] of the same molecule?
The IC50 was 22400 nM.

And the IC50 [3]?
Its IC50 is 38.9 nM.

Which results are given for `Cc1cc(-c2[nH]c3sc(C4CCC(N5CC6(COC6)C5)CC4)nc3c2C(C)C)cn2ncnc12` (single isomer, unassigned) [Example 136, 6-(4-(6-isopropyl-5-(8-methyl-[1,2,4]triazolo[1,5-a]pyridin-6-yl)-4H-pyrrolo[3,2-d]thiazol-2-yl)cyclohexyl)-2-oxa-6-azaspiro[3.3]heptane]?
IC50 [1]: 1.69 nM; IC50 [2]: 42800 nM; IC50 [3]: 4.36 nM

What does the source list for `Cc1cc(-c2[nH]c3sc(C4CCC(N5CC6(COC6)C5)CC4)nc3c2C(C)C)cn2ncnc12` (single isomer, unassigned) [Example 137, 6-(4-(6-isopropyl-5-(8-methyl-[1,2,4]triazolo[1,5-a]pyridin-6-yl)-4H-pyrrolo[3,2-d]thiazol-2-yl)cyclohexyl)-2-oxa-6-azaspiro[3.3]heptane]?
IC50 [1]: 3.4 nM; IC50 [2]: 6730 nM; IC50 [3]: 40.8 nM

Which results are given for `Cc1cc(-c2[nH]c3sc(C4CCC(NC56CC(C5)C6)CC4)nc3c2C(C)C)cn2ncnc12` (single isomer, unassigned) [Example 138, N-(4-(6-isopropyl-5-(8-methyl-[1,2,4]triazolo[1,5-a]pyridin-6-yl)-4H-pyrrolo[3,2-d]thiazol-2-yl)cyclohexyl)bicyclo[1.1.1]pentan-1-amine]?
IC50 [1]: 0.93 nM; IC50 [2]: 14800 nM; IC50 [3]: 3.96 nM
